Key:
[1] = target: Serine/threonine-protein kinase mTOR (Homo sapiens, UniProt P42345)
[2] = target: Phosphatidylinositol 4,5-bisphosphate 3-kinase catalytic subunit alpha isoform (Homo sapiens, UniProt P42336)
Description: Inhibition of human PI3Kalpha expressed in Sf9 cells

[3] = in vitro; conditions: human, liver microsomes
Description: Clearance in human liver microsomes

[4] = in vitro; conditions: rat, liver microsomes
Description: Clearance in rat liver microsomes

Chain of Phosphatidylinositol 4,5-bisphosphate 3-kinase catalytic subunit alpha isoform (P42336 whole entry, canonical isoform): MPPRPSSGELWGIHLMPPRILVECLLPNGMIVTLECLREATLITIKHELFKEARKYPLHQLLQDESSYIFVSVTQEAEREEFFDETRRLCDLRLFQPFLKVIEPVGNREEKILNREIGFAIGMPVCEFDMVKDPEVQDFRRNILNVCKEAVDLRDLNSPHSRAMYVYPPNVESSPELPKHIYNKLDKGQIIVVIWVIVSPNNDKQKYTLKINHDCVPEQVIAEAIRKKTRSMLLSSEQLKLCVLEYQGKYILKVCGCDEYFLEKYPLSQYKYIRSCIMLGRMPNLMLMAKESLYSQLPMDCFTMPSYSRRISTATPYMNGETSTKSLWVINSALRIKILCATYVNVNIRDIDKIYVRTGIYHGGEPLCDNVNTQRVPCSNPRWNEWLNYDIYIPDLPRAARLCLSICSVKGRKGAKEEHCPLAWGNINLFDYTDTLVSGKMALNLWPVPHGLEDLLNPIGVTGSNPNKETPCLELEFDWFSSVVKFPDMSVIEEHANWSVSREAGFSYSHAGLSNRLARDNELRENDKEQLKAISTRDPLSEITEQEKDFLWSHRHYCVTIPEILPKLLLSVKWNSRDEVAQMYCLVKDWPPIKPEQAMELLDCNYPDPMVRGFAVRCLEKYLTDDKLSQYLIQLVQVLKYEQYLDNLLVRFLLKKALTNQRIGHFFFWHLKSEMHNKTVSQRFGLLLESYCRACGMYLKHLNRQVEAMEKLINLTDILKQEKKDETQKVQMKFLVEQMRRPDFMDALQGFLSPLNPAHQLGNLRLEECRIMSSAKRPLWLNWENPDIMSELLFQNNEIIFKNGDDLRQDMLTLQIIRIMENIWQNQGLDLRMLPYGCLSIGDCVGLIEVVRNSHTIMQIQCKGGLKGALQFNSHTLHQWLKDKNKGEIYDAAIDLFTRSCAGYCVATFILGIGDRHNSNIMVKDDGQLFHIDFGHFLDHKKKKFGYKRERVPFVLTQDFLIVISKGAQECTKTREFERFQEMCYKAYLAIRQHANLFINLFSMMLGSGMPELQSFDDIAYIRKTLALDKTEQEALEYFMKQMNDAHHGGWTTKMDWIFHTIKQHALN

Compound CC(=O)Nc1nc2ccc(-c3ccnc(Sc4cccc(C)c4)n3)cc2s1 has an IC50 [1] greater than 6000 nM and a Ki [2] of 53 nM.

With CC(=O)Nc1nc2ccc(-c3ccnc(Cc4ccccc4)n3)cc2s1 the IC50 [1] was greater than 6000 nM and the Ki [2] was 605 nM.

In the case of CC(=O)Nc1nc2ccc(-c3ccnc(Sc4ccccc4F)n3)cc2s1, the IC50 [1] is reported as greater than 6000 nM and the Ki [2] is reported as 46 nM.

Compound CC(=O)Nc1nc2ccc(-c3ccnc(N(C)S(=O)(=O)c4ccccc4F)n3)cc2s1 has an IC50 [1] greater than 6000 nM.

Compound CC(=O)Nc1nc2ccc(-c3ccnc(OCc4ccc(C)cc4)n3)cc2s1 has an IC50 [1] greater than 6000 nM and a Ki [2] of 58 nM.

For CC(=O)Nc1nc2ccc(-c3ccnc(OCc4cccc(C)c4)n3)cc2s1, the IC50 [1] was greater than 6000 nM and the Ki [2] was 47 nM.

In the case of COc1ccc(S(=O)(=O)Nc2nccc(-c3ccc4nc(NC(C)=O)sc4c3)n2)cc1, the IC50 [1] is reported as 57 nM.

CC(=O)Nc1nc2ccc(-c3ccnc(N(C)S(=O)(=O)c4ccc(C)cc4)n3)cc2s1 showed an IC50 [1] of 269 nM, a microsomal CLint [3] of 579 µL/min/mg and a microsomal CLint [4] greater than 399 µL/min/mg.

For COc1ccccc1Sc1nccc(-c2ccc3nc(NC(C)=O)sc3c2)n1, the IC50 [1] was greater than 6000 nM.

In the case of CC(=O)Nc1nc2ccc(-c3ccnc(OCc4cccc(F)c4)n3)cc2s1, the IC50 [1] is reported as greater than 6000 nM.

Work on COc1ccc(S(=O)(=O)N(C)c2nccc(-c3ccc4nc(NC(C)=O)sc4c3)n2)cc1 yielded an IC50 [1] of 285 nM, a microsomal CLint [3] greater than 399 µL/min/mg and a Ki [2] of 76 nM. The microsomal CLint [4] was greater than 399 µL/min/mg.

CC(=O)Nc1nc2ccc(-c3ccnc(NS(=O)(=O)c4ccccc4F)n3)cc2s1 gave an IC50 [1] of 45 nM and a Ki [2] of 41 nM.

CC(=O)Nc1nc2ccc(-c3ccnc(NCc4ccccc4)n3)cc2s1 showed an IC50 [1] greater than 6000 nM and a Ki [2] of 85 nM.

With COc1cccc(COc2nccc(-c3ccc4nc(NC(C)=O)sc4c3)n2)c1 the IC50 [1] was greater than 6000 nM and the Ki [2] was 18 nM.

Compound CC(=O)Nc1nc2ccc(-c3ccnc(NS(=O)(=O)c4ccc(C)cc4)n3)cc2s1 has an IC50 [1] of 65 nM and a Ki [2] of 82 nM.

With CC(=O)Nc1nc2ccc(-c3ccnc(SCc4ccccc4)n3)cc2s1 the IC50 [1] was greater than 6000 nM.

For COc1ccc(S(=O)(=O)Nc2cncc(-c3ccc4nc(NC(C)=O)sc4c3)c2)cc1, the IC50 [1] was 11 nM and the Ki [2] was 1.6 nM.

With CC(=O)Nc1nc2ccc(-c3ccnc(CCc4ccccc4)n3)cc2s1 the IC50 [1] was greater than 6000 nM.

With CC(=O)Nc1nc2ccc(-c3cnc(Cl)c(NS(=O)(=O)c4ccccc4C(F)(F)F)c3)cc2s1 the IC50 [1] was less than 1 nM, the microsomal CLint [3] was less than 14 µL/min/mg and the Ki [2] was less than 1 nM. It also gave a microsomal CLint [4] of 500 µL/min/mg.

For CC(=O)Nc1nc2ccc(-c3cnc(Cl)c(NS(=O)(=O)c4ccc(Cl)cc4)c3)cc2s1, the IC50 [1] was less than 1 nM, the microsomal CLint [3] was less than 14 µL/min/mg and the Ki [2] was less than 1 nM. For the same compound, the microsomal CLint [4] was less than 14 µL/min/mg.

CC(=O)Nc1nc2ccc(-c3ccnc(OCCCc4ccccc4)n3)cc2s1 showed an IC50 [1] greater than 6000 nM and a Ki [2] of 32 nM.

CCN(c1nccc(-c2ccc3nc(NC(C)=O)sc3c2)n1)S(=O)(=O)c1ccc(OC)cc1 gave an IC50 [1] of 262 nM and a Ki [2] of 62 nM.

Work on COc1ccc(S(=O)(=O)Nc2cc(-c3ccc4nc(NC(C)=O)sc4c3)cnc2C)cc1 yielded an IC50 [1] of 6 nM and a Ki [2] of 1.2 nM.

With CC(=O)Nc1nc2ccc(-c3ccnc(Sc4ccccc4)n3)cc2s1 the IC50 [1] was greater than 6000 nM.

For CC(=O)Nc1nc2ccc(-c3ccnc(OCc4ccc(F)cc4)n3)cc2s1, the IC50 [1] was greater than 6000 nM.

For CC(=O)Nc1nc2ccc(-c3cnc(Cl)c(NS(=O)(=O)c4cccc(C(F)(F)F)c4)c3)cc2s1, the IC50 [1] was less than 1 nM, the microsomal CLint [3] was 17 µL/min/mg and the Ki [2] was less than 1 nM. The microsomal CLint [4] was 36 µL/min/mg.

CC(=O)Nc1nc2ccc(-c3cnc(Cl)c(NS(=O)(=O)c4ccc(C(C)(C)C)cc4)c3)cc2s1 showed an IC50 [1] of 2.1 nM, a microsomal CLint [3] of 135 µL/min/mg and a Ki [2] of less than 1 nM. The microsomal CLint [4] was 460 µL/min/mg.

Compound COc1ccc(S(=O)(=O)Nc2cc(-c3ccc4nc(NC(C)=O)sc4c3)ccn2)cc1 has an IC50 [1] of 29 nM.

CC(=O)Nc1nc2ccc(-c3cnc(Cl)c(NS(=O)(=O)c4ccccc4Cl)c3)cc2s1 showed an IC50 [1] of less than 1 nM, a microsomal CLint [3] of less than 14 µL/min/mg and a Ki [2] of less than 1 nM. The microsomal CLint [4] was greater than 399 µL/min/mg.

CC(=O)Nc1nc2ccc(-c3ccnc(Sc4ccc(C)cc4)n3)cc2s1 gave an IC50 [1] greater than 6000 nM and a Ki [2] of 59 nM.

In the case of COc1cccc(Sc2nccc(-c3ccc4nc(NC(C)=O)sc4c3)n2)c1, the IC50 [1] is reported as greater than 6000 nM and the Ki [2] is reported as 48 nM.

CC(=O)Nc1nc2ccc(-c3ccnc(Sc4ccccc4C)n3)cc2s1 showed an IC50 [1] greater than 6000 nM.

In the case of CC(=O)Nc1nc2ccc(-c3ccnc(NS(=O)(=O)c4ccc(F)cc4)n3)cc2s1, the IC50 [1] is reported as 719 nM and the Ki [2] is reported as 826 nM.

With COc1ccc(S(=O)(=O)Nc2cccc(-c3ccc4nc(NC(C)=O)sc4c3)c2)cc1 the IC50 [1] was 1500 nM and the Ki [2] was 48 nM.

Work on COc1ccc(S(=O)(=O)Nc2cc(-c3ccc4nc(NC(C)=O)sc4c3)cnc2C#N)cc1 yielded an IC50 [1] of 1.6 nM and a Ki [2] of 1.4 nM.

In the case of CC(=O)Nc1nc2ccc(-c3cnc(Cl)c(NS(=O)(=O)c4cccc(F)c4)c3)cc2s1, the IC50 [1] is reported as 2.3 nM, the microsomal CLint [3] is reported as less than 14 µL/min/mg and the Ki [2] is reported as 1.1 nM. For the same compound, the microsomal CLint [4] was greater than 399 µL/min/mg.

In the case of COc1ccc(S(=O)(=O)Nc2cncc(-c3ccc4nc(NC(C)=O)sc4c3)n2)cc1, the IC50 [1] is reported as 15 nM and the Ki [2] is reported as 9 nM.

With CC(=O)Nc1nc2ccc(-c3cnc(Cl)c(NS(=O)(=O)c4ccc(C(F)(F)F)cc4)c3)cc2s1 the IC50 [1] was 1.6 nM, the microsomal CLint [3] was less than 14 µL/min/mg and the Ki [2] was less than 1 nM. For the same compound, the microsomal CLint [4] was less than 14 µL/min/mg.

CC(=O)Nc1nc2ccc(-c3ccnc(OCCCc4cccnc4)n3)cc2s1 gave an IC50 [1] of 913 nM.

CC(=O)Nc1nc2ccc(-c3ccnc(OCc4ccncc4)n3)cc2s1 showed an IC50 [1] greater than 6000 nM and a Ki [2] of 128 nM.

Compound COc1ccc(C(=O)Nc2nccc(-c3ccc4nc(NC(C)=O)sc4c3)n2)cc1 has an IC50 [1] greater than 6000 nM and a Ki [2] of 3130 nM.

Compound CC(=O)Nc1nc2ccc(-c3ccnc(Oc4ccccc4)n3)cc2s1 has an IC50 [1] greater than 6000 nM.

COc1ccc(Sc2nccc(-c3ccc4nc(NC(C)=O)sc4c3)n2)cc1 gave an IC50 [1] of 3010 nM and a Ki [2] of 18 nM.

CC(=O)Nc1nc2ccc(-c3cnc(Cl)c(NS(=O)(=O)c4cccc(Cl)c4)c3)cc2s1 showed an IC50 [1] of less than 1 nM, a microsomal CLint [3] of 16 µL/min/mg and a Ki [2] of less than 1 nM. For the same compound, the microsomal CLint [4] was greater than 399 µL/min/mg.

Work on COc1ccc(S(=O)(=O)Nc2cc(-c3ccc4nc(NC(C)=O)sc4c3)cnc2Cl)cc1 yielded an IC50 [1] of 2.1 nM, a microsomal CLint [3] of 42 µL/min/mg and a Ki [2] of less than 1 nM. It also gave a microsomal CLint [4] greater than 399 µL/min/mg.

CC(=O)Nc1nc2ccc(-c3cnc(Cl)c(NS(=O)(=O)c4cccc(C(C)(C)C)c4)c3)cc2s1 gave an IC50 [1] of 2.1 nM, a microsomal CLint [3] of 83 µL/min/mg and a Ki [2] of less than 1 nM. For the same compound, the microsomal CLint [4] was 610 µL/min/mg.

In the case of CC(=O)Nc1nc2ccc(-c3ccnc(OCCCN4CCOCC4)n3)cc2s1, the IC50 [1] is reported as greater than 6000 nM.

For CC(=O)Nc1nc2ccc(-c3ccnc(NS(=O)(=O)c4cccc(F)c4)n3)cc2s1, the IC50 [1] was 47 nM and the Ki [2] was 84 nM.

For CC(=O)Nc1nc2ccc(-c3ccnc(Sc4cccc(F)c4)n3)cc2s1, the IC50 [1] was greater than 6000 nM and the Ki [2] was 31 nM.

For CC(=O)Nc1nc2ccc(-c3cnc(Cl)c(NS(=O)(=O)c4ccccc4)c3)cc2s1, the IC50 [1] was less than 1 nM, the microsomal CLint [3] was less than 14 µL/min/mg and the microsomal CLint [4] was greater than 399 µL/min/mg.

Compound CC(=O)Nc1nc2ccc(-c3cnc(Cl)c(NS(=O)(=O)c4ccccc4F)c3)cc2s1 has an IC50 [1] of 1.1 nM, a microsomal CLint [3] of less than 14 µL/min/mg and a Ki [2] of less than 1 nM. The microsomal CLint [4] was 320 µL/min/mg.

For CC(=O)Nc1nc2ccc(-c3ccnc(NC(C)(C)c4ccccc4)n3)cc2s1, the IC50 [1] was greater than 6000 nM.

For CC(=O)Nc1nc2ccc(-c3ccnc(OCCCc4ccncc4)n3)cc2s1, the IC50 [1] was greater than 6000 nM and the Ki [2] was 114 nM.

Compound COc1ccc(COc2nccc(-c3ccc4nc(NC(C)=O)sc4c3)n2)cc1 has an IC50 [1] greater than 6000 nM and a Ki [2] of 58 nM.

In the case of CC(=O)Nc1nc2ccc(-c3ccnc(OCc4ccccc4)n3)cc2s1, the IC50 [1] is reported as greater than 6000 nM and the Ki [2] is reported as 105 nM.

With CC(=O)Nc1nc2ccc(-c3ccnc(Sc4ccc(F)cc4)n3)cc2s1 the IC50 [1] was greater than 6000 nM and the Ki [2] was 44 nM.
